Data set [1] concerns the target T1, rat VR1 (Rattus norvegicus, UniProt O35433).
T1 construct: expressed in transfected cells
The data set is described as follows: [3H]resiniferatoxin (RTX) competition binding assay, VR1-transfected CHO cells. How it is done: The pUHG102 VR1 plasmid was transfected into CHO cells containing the pTet Off regulatory plasmid (Clontech). In these cells, expression of the VR1 is repressed in the presence of tetracycline but is induced upon removal of the antibiotic. Stable clones were isolated in culture medium containing puromycin (10 μg/mL) and maintained in HAM F12 medium supplemented with tetracycline (1 μg/mL), 5 μg/ml geniticin, 25 mM HEPES, 10% FBS. Cells utilized for assays were grown in culture medium without antibiotic for 48 h before use. Cells were seeded in T75 cell culture flasks in media without antibiotics and grown to approximately 90% confluence. The flasks were then washed with PBS and harvested in 0.25% trypsin, 1 mM EDTA. The cells were pelleted by gentle centrifugation and stored at −20° C. until assay.
Competition Binding Assay
Binding studies with [^3H]resiniferatoxin (RTX) were carried out as described previously with minor modifications (Szallasi et al., 1992). Binding assay mixtures were set up on ice and contained 50-100 pM [^3H]RTX, various concentrations of competing ligands, 0.25 mg/mL BSA (Cohn fraction V), and about 5×10^5 VR1-transfected cells. The final volume was adjusted to 350 μL with DPBS with Ca^2+ and Mg^2+ and 0.25 mg/mL bovine serum albumin. Non-specific binding was determined in the presence of 100 nM nonradioactive RTX. The binding reaction was initiated by transferring the assay mixtures to a 37° C. water bath and was terminated after a 60 min incubation period by cooling the tubes on ice. To reduce non-specific binding, 200 μg/ml α-glycoprotein was added. Membrane-bound RTX was then separated from the free by pelleting the membranes in a Beckman 12 benchtop centrifuge (15 min, maximal velocity), the tips of the tubes containing the pellets were cut off, and the radioactivity was determined by scintillation counting. Equilibrium binding parameters (Ki and cooperativity) were determined by fitting the Hill equation to the measured values with the aid of the program MicroCal Origin 6.0.
(§1) Initial stocks were dissolved in DMSO. For the binding assays, compounds were diluted in with DPBS with Ca^2+ and Mg^2+ and 0.25 mg/mL bovine serum albumin. For the calcium uptake assays, compounds were diluted in DMEM with 0.25 mg/mL bovine serum albumin.

For data set [2], the target named is T1, rat VR1. The data set is described as follows: 45Ca2+-uptake assay in CHO/VR1 cells, antagonism of capsaicin-stimulated uptake. In kind it is cell-based. Conditions: 45Ca2+ uptake stimulated by 50 nM capsaicin. How it is done: as §1
Molecules were characterized to determine whether they were full agonists, partial agonists, or antagonists. For studies of ^45Ca^2+ uptake by CHO/VR1 cells (Tet-off cells), the cells were plated in 24-well plates to yield a cell density 20-40% of that required to produce confluence. The next day the medium was changed to remove the tetracycline and induce VR1 expression. Experiments were performed approximately 36-40 hours after induction. For ^45Ca^2+ uptake assay, cells were incubated for 5 min at 37° C. in a total volume of 400 μL of serum free DMEM (containing 1.8 mM CaCl2) in the presence of 0.25 mg/mL BSA (Sigma), 1 μCi/mL ^45Ca^2+ (5-30 Ci/g from ICN, CA), and increasing concentrations of the compound to be tested. Immediately after the incubation, extracellular ^45Ca^2+ was removed by washing the cells three times with cold DPBS (containing 1.8 mM CaCl2). Then 400 μl RIPA buffer (50 mM Tris pH 7.4; 150 mM NaCl; 1% Triton X-100; 0.1% SDS; 1% sodium deoxycholate) was added to each well in order to lyse the cells. Plates were shaken slowly for 20 min; then 306 μL of cell lysate was transferred from each well into a scintillation vial and radioactivity was determined by scintillation counting. For each data point in each experiment, four wells were assayed. Data from these experiments were analyzed by computer fit to the Hill equation. At least 3 separate experiments were carried out for each compound. In order to determine antagonist activity, studies were performed in exactly the same fashion with the exception that 50 nM capsaicin was added to the assay mixture to stimulate ^45Ca^2+ uptake.

Where [3] appears, read: competition with [3H]RTX, rat VR1 in CHO cells, read-out: Ki (nM) Binding Affinity.

T1 sequence (O35433 whole entry): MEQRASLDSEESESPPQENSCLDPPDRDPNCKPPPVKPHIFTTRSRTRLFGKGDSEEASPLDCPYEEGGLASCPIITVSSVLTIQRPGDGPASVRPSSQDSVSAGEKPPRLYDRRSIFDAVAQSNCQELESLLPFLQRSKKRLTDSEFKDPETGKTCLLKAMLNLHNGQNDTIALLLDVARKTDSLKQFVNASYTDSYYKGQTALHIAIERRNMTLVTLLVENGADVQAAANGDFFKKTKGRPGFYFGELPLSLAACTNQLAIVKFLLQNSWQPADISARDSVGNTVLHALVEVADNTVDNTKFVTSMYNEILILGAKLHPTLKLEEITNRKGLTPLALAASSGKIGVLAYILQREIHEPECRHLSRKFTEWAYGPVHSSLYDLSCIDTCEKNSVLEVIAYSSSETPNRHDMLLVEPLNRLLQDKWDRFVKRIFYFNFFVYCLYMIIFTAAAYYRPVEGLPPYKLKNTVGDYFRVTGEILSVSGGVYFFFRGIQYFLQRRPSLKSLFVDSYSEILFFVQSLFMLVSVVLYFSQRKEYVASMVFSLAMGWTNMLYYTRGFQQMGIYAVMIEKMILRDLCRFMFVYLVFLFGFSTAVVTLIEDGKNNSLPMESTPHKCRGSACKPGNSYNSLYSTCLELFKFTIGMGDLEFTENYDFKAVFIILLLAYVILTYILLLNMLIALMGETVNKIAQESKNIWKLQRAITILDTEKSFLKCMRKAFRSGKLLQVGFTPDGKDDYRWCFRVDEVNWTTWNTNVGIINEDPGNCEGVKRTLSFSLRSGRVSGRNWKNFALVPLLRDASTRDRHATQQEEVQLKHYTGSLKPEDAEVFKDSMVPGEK

Take `CC(C(=O)NCc1ccc(C(C)(C)C)cc1)c1ccc(NS(C)(=O)=O)c(C(=O)OC(C)(C)C)c1` (centres unmarked) [1-57, N-(4-tert-Butylbenzyl)-2-[3-(t-butoxycarbonyl)-4-(methylsulfonylamino)phenyl]propionamide]: the melting point lay in the range of 75 to 77 °C. In addition, the Ki on rat VR1 [1] (setting [3]) was 6730 nM.

The compound `CC(C(=O)NCc1ccc(C(C)(C)C)cc1)c1ccc(NS(C)(=O)=O)c(C(=O)O)c1` (centres unmarked) [1-58, N-(4-tert-Butylbenzyl)-2-[3-carboxyl-4-(methylsulfonylamino)phenyl]propionamide] came in with a melting point of 180 to 183 °C.

Compound `CC(C(=O)NCc1ccc(C(C)(C)C)cc1)c1ccc(NS(C)(=O)=O)c(C(=O)NCc2ccccc2)c1` (centres unmarked) [1-60, N-(4-tert-Butylbenzyl)-2-[3-(benzylamino)carbonyl-4-(methylsulfonylamino)phenyl]propionamide] returned a melting point of 79 to 81 °C. For the same compound, on rat VR1 [1] (setting [3]), the Ki worked out at 3710 nM.

Take `CC(C(=O)NCc1ccc(C(C)(C)C)cc1)c1ccc(NS(C)(=O)=O)c(N2CCCCC2)c1` (centres unmarked) [1-61, N-(4-tert-Butylbenzyl)-2-[3-piperidino-4-(methylsulfonylamino)phenyl]propionamide]: the melting point stood at 125 °C.

For `CC(C(=O)NCc1ccc(C(C)(C)C)cc1)c1ccc(NS(C)(=O)=O)c(N2CCOCC2)c1` (centres unmarked) [1-62, N-(4-tert-Butylbenzyl)-2-[3-morpholino-4-(methylsulfonylamino)phenyl]propionamide], the melting point amounted to 78 °C.

The compound `CC(C(=O)NCc1ccc(C(C)(C)C)cc1)c1ccc(NS(C)(=O)=O)c(N2CCN(C(=O)OC(C)(C)C)CC2)c1` (centres unmarked) [1-63, N-(4-tert-Butylbenzyl)-2-[3-(N-boc)piperazino-4-(methylsulfonylamino)phenyl]propionamide] yielded a melting point of 103 °C.

In turn, `CC(C(=O)NCc1ccc(C(C)(C)C)cc1)c1ccc(NS(C)(=O)=O)c(N2CCNCC2)c1` (centres unmarked) [1-64, N-(4-tert-Butylbenzyl)-2-[3-piperazino-4-(methylsulfonylamino)phenyl]propionamide] returned a melting point of 92 °C.

In the case of `Cc1ccc(CNC(=O)C(C)c2ccc(NS(C)(=O)=O)c(F)c2)cc1` (centres unmarked) [4-7, N-(4-Methylbenzyl)-2-[3-fluoro-4-(methylsulfonylamino)phenyl]propionamide], the melting point was 166 °C.

The compound `COc1ccc(CNC(=O)C(C)c2ccc(NS(C)(=O)=O)c(F)c2)cc1` (centres unmarked) [4-9, N-(4-Methoxybenzyl)-2-[3-fluoro-4-(methylsulfonylamino)phenyl]propionamide] registered a melting point of 138 °C. For the same compound, on rat VR1 [2], the affinity, expressed as Ki, was 1350 nM.

In the case of `CC(C(=O)NC1CCCc2ccccc21)c1ccc(NS(C)(=O)=O)c(F)c1` (centres unmarked) [4-13, N-(1,2,3,4-Tetrahydro-1-naphthalenyl)-2-[3-fluoro-4-(methylsulfonylamino)phenyl]propionamide], the melting point lay in the range of 116 to 117 °C.

With `Cc1ccc(C=CCNC(=O)C(C)c2ccc(NS(C)(=O)=O)c(F)c2)cc1C` (centres unmarked) [4-18, N-[3-(3,4-Dimethylphenyl)-2-propenyl]-2-[3-fluoro-4-(methylsulfonylamino)phenyl]propionamide], the melting point was in the range of 144 to 146 °C.

Take `CC(C(=O)NCCCc1ccc(Cl)cc1)c1ccc(NS(C)(=O)=O)c(F)c1` (centres unmarked) [4-19, N-[3-(4-Chlorophenyl)propyl]-2-[3-fluoro-4-(methylsulfonylamino)phenyl]propionamide]: the melting point is 141 to 143 °C.

Turning to `CC(C(=O)NCC=Cc1ccc(Cl)cc1)c1ccc(NS(C)(=O)=O)c(F)c1` (centres unmarked) [4-20, N-[3-(4-Chlorophenyl)-2-propenyl]-2-[3-fluoro-4-(methylsulfonylamino)phenyl]propionamide], the melting point was in the range of 151 to 153 °C.

The compound `CC(C(=O)NOCc1ccccc1)c1ccc(NS(C)(=O)=O)c(F)c1` (centres unmarked) [4-21, N-Benzyloxy-2-[3-fluoro-4-(methylsulfonylamino)phenyl]propionamide] showed a melting point of 182 to 183 °C. Also, the Ki on rat VR1 [1] (setting [3]) was determined as 9420 nM.

Regarding `CC(C(=O)NC(c1ccccc1)c1ccccc1)c1ccc(NS(C)(=O)=O)c(F)c1` (centres unmarked) [4-22, N-Benzhydryl-2-[3-fluoro-4-(methylsulfonylamino)phenyl]propionamide], the melting point was 160 to 161 °C. Also, the Ki at rat VR1 [1] (setting [3]) is 5860 nM.

With `CC(C(=O)NCC=C(c1ccccc1)c1ccccc1)c1ccc(NS(C)(=O)=O)c(F)c1` (centres unmarked) [4-25, N-(3,3-Diphenyl-2-propenyl)-2-[3-fluoro-4-(methylsulfonylamino)phenyl]propionamide], the melting point lay within 155 to 157 °C.

Consider `COc1cc(C(C)C(=O)NCC(COC(=O)C(C)(C)C)Cc2ccc(C(C)(C)C)cc2)ccc1NS(C)(=O)=O` (centres unmarked) [5-6, N-[2-(4-tert-Butylbenzyl)-3-pivaloyloxypropyl]-2-[3-methoxy-4-(methylsulfonylamino)phenyl]propionamide], for which the melting point lay in the range of 54 to 57 °C. Further, the Ki on rat VR1 [1] (setting [3]) stood at 24 nM.

Compound `C[C@H](C(=O)N[C@H](COC(=O)C(C)(C)C)Cc1ccccc1)c1ccc(NS(C)(=O)=O)c(F)c1` [6-2, N—[(S)-1-Benzyl-2-(pivaloyloxy)ethyl]-(S)-2-[3-fluoro-4-(methylsulfonylamino)phenyl]propionamide] gave a melting point of 125 to 126 °C.

The compound `Cc1ccc(CCCNC(=O)C2(c3ccc(NS(C)(=O)=O)c(F)c3)CC2)cc1C` [12-5, N-[3-(3,4-Dimethylphenyl)propyl]-1-[3-fluoro-4-(methylsulfonylamino)phenyl]cyclopropanecarboxamide] had a melting point of 127 to 128 °C.

Consider `CC(C)(C)c1ccc(CNC(=O)C2(c3ccc(NS(C)(=O)=O)c(F)c3)CC2)cc1` [12-8, N-(4-tert-Butylbenzyl)-1-[3-fluoro-4-(methylsulfonylamino)phenyl]cyclopropanecarboxamide], for which the melting point is 200 to 203 °C.

`CC(NC(=S)NCc1ccc(C(C)(C)C)cc1)c1ccc(NS(C)(=O)=O)c(C(=O)O)c1` (centres unmarked) [15-5, N-(4-t-Butylbenzyl)-N′-{1-[3-carboxy-4-(methylsulfonylamino)phenyl]ethyl}thiourea]: the melting point is 189 to 192 °C. The compound also returned a Ki on rat VR1 [1] of 2770 nM.

For `C[C@H](NC(=S)NCc1ccc(C(C)(C)C)cc1)c1ccc(NS(C)(=O)=O)cc1` [16-6, N-(4-t-Butylbenzyl)-N′-{(1S)-1-[4-(methylsulfonylamino)phenyl]ethyl}thiourea], the melting point was determined as 101 °C. In addition, the Ki on rat VR1 [1] worked out at 3590 nM.

In turn, `CC(NC(=S)NC(COC(=O)C(C)(C)C)Cc1ccccc1)c1ccc(NS(C)(=O)=O)cc1` [19-15, N-[(2R)-3-phenyl-1-pivaloyloxy-2-propyl]-N′-[(S)-α-methyl-4-(methylsulfonylamino)benzy]thiourea] returned a melting point of 61 to 64 °C.

For `CC(C)(C)c1ccc(CNC(=S)NC(C)(C)c2ccc(NS(C)(=O)=O)cc2)cc1` [21-7, N-(4-t-Butylbenzyl)-N′-{1-methyl-1-[4-(methylsulfonylamino)phenyl]ethyl}thiourea], the melting point was in the range of 161 to 164 °C. Moreover, the Ki at rat VR1 [2] stood at 1830 nM.

The compound `CC(NC(=O)C=Cc1ccc(C(C)(C)C)cc1)c1ccc(NS(C)(=O)=O)c(F)c1` (centres unmarked) [24-3, N-{1-[3-Fluoro-4-(methylsulfonylamino)phenyl]ethyl}-3-(4-tert-butylphenyl)-2-propenamide] yielded a melting point of 154 to 156 °C.

In the case of “N-{1-[3-Fluoro-4-(methylsulfonylamino)phenyl]ethyl}-3-(4-chlorophenyl)propenamide [24-6]”, at rat VR1 [2], the Ki is 5650 nM.

The values above are taken from patent publication US8642657B2 (Gruenenthal GmbH, priority 2003, dated 2014).
